# Paper PMC5458547, “Discovery of first-in-class reversible dual small molecule inhibitors against G9a and DNMTs in hematological malignancies” (Nature Communications, 2017)
# Legend:
# Assay in all cases: KINOMEscan kinase profiling
# Format in all cases: binding
# BRAF(V600E) = biological target: T1, BRAF(V600E) (Homo sapiens, UniProt P15056, V600E); settings: read-out: Percent Control
# T1 construct: purchased DiscoverX KINOMEscan (kinases); BPS Bioscience (epigenetic targets)
# Experimental: (§1) Kinase Selectivity Profiling
# (§2) (out of which 90 are non-mutant kinases) was performed at DiscoverRx (http://www.discoverx.com/home) using the KINOMEscan™ screening platform at a test concentration of 10 µM. Results for primary screen […]
# (§3) positive control signal) / (negative control signal – positive control signal) *100, where negative control corresponds to DMSO treatment (100%) and positive control to the signal obtained with a control competitive compound (0%). […]
# (§4) using the Hill equation. Each target was assayed in duplicate. […]
# BTK = biological target: T2, BTK (Homo sapiens, UniProt Q06187)
# T2 construct: purchased DiscoverRx (KINOMEscan contract screen)
# Experimental: as §1, §2, §3, §4
# DCAMKL1 = biological target: T3, DCAMKL1 (Homo sapiens, UniProt O15075); settings: read-out: Percent Control
# T3 construct: purchased DiscoverX KINOMEscan (kinases); BPS Bioscience (epigenetic targets)
# Experimental: as §1, §2, §3, §4
# DYRK1B = biological target: T4, DYRK1B (Homo sapiens, UniProt Q9Y463); settings: read-out: Percent Control
# T4 construct: purchased DiscoverX KINOMEscan (kinases); BPS Bioscience (epigenetic targets)
# Experimental: as §1, §2, §3, §4
# EGFR = biological target: T5, EGFR (Homo sapiens, UniProt P00533); settings: read-out: Percent Control
# T5 construct: purchased DiscoverX KINOMEscan (kinases); BPS Bioscience (epigenetic targets)
# Experimental: as §1, §2, §3, §4
# ERBB2 = biological target: T6, ERBB2 (Homo sapiens, UniProt P04626)
# T6 construct: purchased DiscoverRx (DiscoverX), KINOMEscan screening platform
# Experimental: as §1, §2, §3, §4
# ERBB4 = biological target: T7, ERBB4 (Homo sapiens, UniProt Q15303); settings: read-out: Percent Control
# T7 construct: purchased DiscoverX KINOMEscan (kinases); BPS Bioscience (epigenetic targets)
# Experimental: as §1, §2, §3, §4
# FGFR2 = biological target: T8, FGFR2 (Homo sapiens, UniProt P21802); settings: read-out: Percent Control
# T8 construct: purchased DiscoverX KINOMEscan (kinases); BPS Bioscience (epigenetic targets)
# Experimental: as §1, §2, §3, §4
# IGF1R = biological target: T9, IGF1R (Homo sapiens, UniProt P08069); settings: read-out: Percent Control
# T9 construct: purchased DiscoverX KINOMEscan (kinases); BPS Bioscience (epigenetic targets)
# Experimental: as §1, §2, §3, §4
# IKK-alpha = biological target: T10, IKK-alpha (Homo sapiens, UniProt O15111); settings: read-out: Percent Control
# T10 construct: purchased DiscoverX KINOMEscan (kinases); BPS Bioscience (epigenetic targets)
# Experimental: as §1, §2, §3, §4
# [1] = biological target: T11, JAK2(JH1domain-catalytic) (Homo sapiens, UniProt O60674); settings: read-out: Percent Control
# T11 construct: JAK2(JH1domain-catalytic); purchased DiscoverX KINOMEscan (kinases); BPS Bioscience (epigenetic targets)
# Experimental: as §1, §2, §3, §4
# KIT = biological target: T12, KIT (Homo sapiens, UniProt P10721); settings: read-out: Percent Control
# T12 construct: purchased DiscoverX KINOMEscan (kinases); BPS Bioscience (epigenetic targets)
# Experimental: as §1, §2, §3, §4
# KIT(V559D,T670I) = biological target: T13, KIT(V559D,T670I) (Homo sapiens, UniProt P10721, T670I/V559D); settings: read-out: Percent Control
# T13 construct: purchased DiscoverX KINOMEscan (kinases); BPS Bioscience (epigenetic targets)
# Experimental: as §1, §2, §3, §4
# MAP3K4 = biological target: T14, MAP3K4 (Homo sapiens, UniProt Q9Y6R4); settings: read-out: Percent Control
# T14 construct: purchased DiscoverX KINOMEscan (kinases); BPS Bioscience (epigenetic targets)
# Experimental: as §1, §2, §3, §4
# MEK1 = biological target: T15, MEK1 (Homo sapiens, UniProt Q02750); settings: read-out: Percent Control
# T15 construct: purchased DiscoverX KINOMEscan (kinases); BPS Bioscience (epigenetic targets)
# Experimental: as §1, §2, §3, §4
# MKNK1 = biological target: T16, MKNK1 (Homo sapiens, UniProt Q9BUB5); settings: read-out: Percent Control
# T16 construct: purchased DiscoverX KINOMEscan (kinases); BPS Bioscience (epigenetic targets)
# Experimental: as §1, §2, §3, §4
# PIK3C2B = biological target: T17, PIK3C2B (Homo sapiens, UniProt O00750); settings: read-out: Percent Control
# T17 construct: purchased DiscoverX KINOMEscan (kinases); BPS Bioscience (epigenetic targets)
# Experimental: as §1, §2, §3, §4
# PIM3 = biological target: T18, PIM3 (Homo sapiens, UniProt Q86V86); settings: read-out: Percent Control
# T18 construct: purchased DiscoverX KINOMEscan (kinases); BPS Bioscience (epigenetic targets)
# Experimental: as §1, §2, §3, §4
# PLK3 = biological target: T19, PLK3 (Homo sapiens, UniProt Q9H4B4); settings: read-out: Percent Control
# T19 construct: purchased DiscoverX KINOMEscan (kinases); BPS Bioscience (epigenetic targets)
# Experimental: as §1, §2, §3, §4
# PRKCE = biological target: T20, PRKCE (Homo sapiens, UniProt Q02156)
# T20 construct: purchased DiscoverRx (DiscoverX), KINOMEscan screening platform
# Experimental: as §1, §2, §3, §4
# RET = biological target: T21, RET (Homo sapiens, UniProt P07949); settings: read-out: Percent Control
# T21 construct: purchased DiscoverX KINOMEscan (kinases); BPS Bioscience (epigenetic targets)
# Experimental: as §1, §2, §3, §4
# [2] = biological target: T22, RSK2(Kin.Dom.1-N-terminal) (Homo sapiens, UniProt P51812); settings: read-out: Percent Control
# T22 construct: RSK2(Kin.Dom.1-N-terminal); purchased DiscoverX KINOMEscan (kinases); BPS Bioscience (epigenetic targets)
# Experimental: as §1, §2, §3, §4
# SRC = biological target: T23, SRC (Homo sapiens, UniProt P12931); settings: read-out: Percent Control
# T23 construct: purchased DiscoverX KINOMEscan (kinases); BPS Bioscience (epigenetic targets)
# Experimental: as §1, §2, §3, §4
# VEGFR2 = biological target: T24, VEGFR2 (Homo sapiens, UniProt P35968); settings: read-out: Percent Control
# T24 construct: purchased DiscoverX KINOMEscan (kinases); BPS Bioscience (epigenetic targets)
# Experimental: as §1, §2, §3, §4
# CDK11 = biological target: T25, CDK11 (Homo sapiens, UniProt Q9BWU1); settings: read-out: Percent Control
# T25 construct: purchased DiscoverX KINOMEscan (kinases); BPS Bioscience (epigenetic targets)
# Experimental: precipitate the proteins. The mixture was then agitated for 5 min and centrifuged at 13200 rpm for 10 min at 4 °C. A 5 µL aliquot of the resulting supernatant was injected onto the LC-MS/MS system for analysis.
# Frozen plasma samples were thawed at room temperature, vortexed thoroughly and subjected to the above described extraction procedure.
# The pharmacokinetic parameters were obtained by fitting the blood concentration-time data to a non-compartmental model with the WinNonlin software (Pharsight, Mountain View, CA). […]
# concentration-time profile for a dosing regimen of 2.5 mg/kg administered intravenously every 24 h for 3 weeks was simulated with Winnonlin.
# as §1, §2, §3
# using the Hill equation. […]
# MicroScale Thermophoresis (MST) was performed to quantify biomolecular interactions between CM-579 and DNMT1 (full length). […]
# Cell proliferation was analyzed using the CellTiter 96 Aqueous One Solution Cell Proliferation Assay (Promega, Madison, W). […]
# [3] = 10 µM, read-out: Percent Control
# T20 sequence (Q02156 whole entry): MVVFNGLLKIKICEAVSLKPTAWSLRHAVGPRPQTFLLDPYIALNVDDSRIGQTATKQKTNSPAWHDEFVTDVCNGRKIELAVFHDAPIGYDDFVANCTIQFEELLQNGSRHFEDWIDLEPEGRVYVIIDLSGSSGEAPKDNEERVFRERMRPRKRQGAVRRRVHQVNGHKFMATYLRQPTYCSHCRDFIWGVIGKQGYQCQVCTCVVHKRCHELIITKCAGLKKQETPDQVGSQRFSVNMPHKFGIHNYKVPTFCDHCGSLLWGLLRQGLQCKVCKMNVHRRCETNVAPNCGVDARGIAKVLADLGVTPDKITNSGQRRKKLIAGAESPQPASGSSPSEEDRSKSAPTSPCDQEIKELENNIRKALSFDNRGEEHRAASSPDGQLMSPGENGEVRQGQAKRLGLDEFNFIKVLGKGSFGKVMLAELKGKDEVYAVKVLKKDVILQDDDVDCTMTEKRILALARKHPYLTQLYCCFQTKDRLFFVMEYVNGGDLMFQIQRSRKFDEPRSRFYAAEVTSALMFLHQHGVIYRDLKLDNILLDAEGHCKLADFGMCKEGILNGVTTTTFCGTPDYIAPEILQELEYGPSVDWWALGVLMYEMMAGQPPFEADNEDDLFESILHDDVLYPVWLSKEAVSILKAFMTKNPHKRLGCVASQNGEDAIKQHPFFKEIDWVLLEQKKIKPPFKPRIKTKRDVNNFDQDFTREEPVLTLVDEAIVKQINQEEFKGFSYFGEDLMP
# T2 sequence (Q06187 whole entry): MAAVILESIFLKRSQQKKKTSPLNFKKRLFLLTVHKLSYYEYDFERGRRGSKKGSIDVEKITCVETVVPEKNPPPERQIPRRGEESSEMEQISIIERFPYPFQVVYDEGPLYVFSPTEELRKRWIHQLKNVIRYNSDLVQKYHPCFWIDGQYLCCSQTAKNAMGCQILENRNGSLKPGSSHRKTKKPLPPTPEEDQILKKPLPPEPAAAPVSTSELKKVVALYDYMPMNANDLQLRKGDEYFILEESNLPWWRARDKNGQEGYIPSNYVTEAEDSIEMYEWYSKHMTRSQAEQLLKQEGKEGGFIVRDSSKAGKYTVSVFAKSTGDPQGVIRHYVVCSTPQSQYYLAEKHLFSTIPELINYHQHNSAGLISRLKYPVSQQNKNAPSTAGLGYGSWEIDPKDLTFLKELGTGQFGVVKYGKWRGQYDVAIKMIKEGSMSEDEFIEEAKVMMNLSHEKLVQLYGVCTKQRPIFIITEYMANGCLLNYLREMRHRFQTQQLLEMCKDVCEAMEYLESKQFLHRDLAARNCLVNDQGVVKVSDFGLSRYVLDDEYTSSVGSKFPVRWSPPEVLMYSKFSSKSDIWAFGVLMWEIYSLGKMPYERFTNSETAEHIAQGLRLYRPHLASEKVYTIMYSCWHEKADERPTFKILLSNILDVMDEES
# T6 sequence (P04626 23-1255): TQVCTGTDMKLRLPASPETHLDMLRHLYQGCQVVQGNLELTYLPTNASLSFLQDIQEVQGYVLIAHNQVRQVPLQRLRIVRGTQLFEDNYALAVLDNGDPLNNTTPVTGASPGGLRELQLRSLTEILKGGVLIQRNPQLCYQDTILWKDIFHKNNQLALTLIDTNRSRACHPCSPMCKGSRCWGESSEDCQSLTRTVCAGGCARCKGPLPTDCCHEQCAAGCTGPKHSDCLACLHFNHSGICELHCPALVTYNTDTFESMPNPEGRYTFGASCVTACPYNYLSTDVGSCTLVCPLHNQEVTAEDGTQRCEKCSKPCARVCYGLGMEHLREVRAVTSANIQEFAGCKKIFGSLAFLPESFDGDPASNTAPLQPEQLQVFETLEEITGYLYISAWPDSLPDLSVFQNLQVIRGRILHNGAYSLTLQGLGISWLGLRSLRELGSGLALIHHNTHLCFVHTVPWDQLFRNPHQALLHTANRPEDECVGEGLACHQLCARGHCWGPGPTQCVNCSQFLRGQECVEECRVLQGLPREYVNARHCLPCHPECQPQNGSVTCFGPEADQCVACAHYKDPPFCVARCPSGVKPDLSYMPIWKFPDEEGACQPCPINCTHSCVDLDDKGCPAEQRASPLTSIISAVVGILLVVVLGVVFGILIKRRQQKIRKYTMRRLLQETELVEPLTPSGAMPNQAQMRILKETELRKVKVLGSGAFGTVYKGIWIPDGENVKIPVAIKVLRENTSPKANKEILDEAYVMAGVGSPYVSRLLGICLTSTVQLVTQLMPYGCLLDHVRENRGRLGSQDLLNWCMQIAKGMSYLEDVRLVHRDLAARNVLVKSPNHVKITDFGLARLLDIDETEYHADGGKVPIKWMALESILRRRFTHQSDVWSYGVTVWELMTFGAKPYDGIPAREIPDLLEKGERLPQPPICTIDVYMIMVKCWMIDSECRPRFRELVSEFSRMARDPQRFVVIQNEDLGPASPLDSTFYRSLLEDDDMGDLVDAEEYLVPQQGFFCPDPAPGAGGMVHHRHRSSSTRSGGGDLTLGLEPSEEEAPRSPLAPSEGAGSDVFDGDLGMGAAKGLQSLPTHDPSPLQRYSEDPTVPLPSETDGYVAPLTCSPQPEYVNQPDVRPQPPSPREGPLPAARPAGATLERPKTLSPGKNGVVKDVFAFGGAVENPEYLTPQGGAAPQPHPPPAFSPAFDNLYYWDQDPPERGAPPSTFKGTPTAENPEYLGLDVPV
# T10 sequence (O15111 whole entry): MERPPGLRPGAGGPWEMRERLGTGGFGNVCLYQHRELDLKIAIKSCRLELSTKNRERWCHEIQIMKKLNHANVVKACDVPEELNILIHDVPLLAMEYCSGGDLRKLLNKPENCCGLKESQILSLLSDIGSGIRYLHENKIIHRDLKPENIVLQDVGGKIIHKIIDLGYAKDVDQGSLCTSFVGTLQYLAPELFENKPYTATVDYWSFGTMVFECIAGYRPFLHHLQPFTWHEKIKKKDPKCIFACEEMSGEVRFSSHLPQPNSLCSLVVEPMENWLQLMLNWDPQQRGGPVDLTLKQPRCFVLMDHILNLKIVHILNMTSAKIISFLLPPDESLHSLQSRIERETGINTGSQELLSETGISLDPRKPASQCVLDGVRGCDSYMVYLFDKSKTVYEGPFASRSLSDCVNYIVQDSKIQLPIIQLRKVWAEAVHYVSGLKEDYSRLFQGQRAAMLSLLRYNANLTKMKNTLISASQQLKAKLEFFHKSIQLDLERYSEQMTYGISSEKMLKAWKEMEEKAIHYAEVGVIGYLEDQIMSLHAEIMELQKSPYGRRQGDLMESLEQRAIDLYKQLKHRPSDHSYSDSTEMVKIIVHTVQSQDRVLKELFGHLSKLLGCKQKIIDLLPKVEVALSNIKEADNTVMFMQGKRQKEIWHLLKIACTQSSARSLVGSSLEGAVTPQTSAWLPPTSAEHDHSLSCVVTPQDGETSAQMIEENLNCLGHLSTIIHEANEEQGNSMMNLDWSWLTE
# T7 sequence (Q15303 26-1308): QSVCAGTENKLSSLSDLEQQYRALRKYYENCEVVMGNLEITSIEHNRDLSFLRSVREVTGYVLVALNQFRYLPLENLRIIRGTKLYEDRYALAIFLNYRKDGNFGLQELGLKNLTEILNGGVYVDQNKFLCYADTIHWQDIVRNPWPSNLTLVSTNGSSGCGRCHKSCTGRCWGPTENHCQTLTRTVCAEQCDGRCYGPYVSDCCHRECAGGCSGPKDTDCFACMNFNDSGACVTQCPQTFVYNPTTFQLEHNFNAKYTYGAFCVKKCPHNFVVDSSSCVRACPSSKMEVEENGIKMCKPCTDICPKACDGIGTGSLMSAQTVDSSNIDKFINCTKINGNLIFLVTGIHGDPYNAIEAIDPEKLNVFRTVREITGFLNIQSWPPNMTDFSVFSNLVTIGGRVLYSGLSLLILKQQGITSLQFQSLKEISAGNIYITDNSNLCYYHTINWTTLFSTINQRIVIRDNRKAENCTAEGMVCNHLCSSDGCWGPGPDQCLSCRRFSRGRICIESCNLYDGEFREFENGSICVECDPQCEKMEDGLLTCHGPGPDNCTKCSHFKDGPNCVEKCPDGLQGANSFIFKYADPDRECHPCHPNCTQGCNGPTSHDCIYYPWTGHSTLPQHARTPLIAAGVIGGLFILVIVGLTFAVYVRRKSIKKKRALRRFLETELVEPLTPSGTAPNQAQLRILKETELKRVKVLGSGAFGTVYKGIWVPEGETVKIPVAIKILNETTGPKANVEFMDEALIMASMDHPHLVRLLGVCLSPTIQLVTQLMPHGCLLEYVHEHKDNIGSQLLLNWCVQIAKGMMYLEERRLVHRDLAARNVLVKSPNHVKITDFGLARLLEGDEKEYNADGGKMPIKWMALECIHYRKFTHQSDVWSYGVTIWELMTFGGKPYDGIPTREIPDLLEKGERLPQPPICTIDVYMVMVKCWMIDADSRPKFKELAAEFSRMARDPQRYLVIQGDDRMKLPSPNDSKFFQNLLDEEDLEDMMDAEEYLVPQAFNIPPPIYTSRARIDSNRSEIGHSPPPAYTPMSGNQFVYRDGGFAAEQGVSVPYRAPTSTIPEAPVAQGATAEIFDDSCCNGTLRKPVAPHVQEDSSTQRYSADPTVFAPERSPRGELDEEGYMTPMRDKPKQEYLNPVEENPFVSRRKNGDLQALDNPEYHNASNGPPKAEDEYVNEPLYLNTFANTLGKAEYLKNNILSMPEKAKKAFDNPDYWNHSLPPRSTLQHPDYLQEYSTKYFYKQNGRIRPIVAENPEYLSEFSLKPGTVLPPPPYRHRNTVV
structure (smiles),measurement,setting,value
"COc1cc2c(NC3CCN(C)CC3)cc(-c3ccc(C)o3)nc2cc1OCCCN1CCCC1 [CM-272, 6-methoxy-2-(5-methyl-2-furyl)-N-(1-methyl-4-piperidyl)-7-(3-pyrrolidin-1-ylpropoxy)quinolin-4-amine]",remaining binding at 10 µM,BRAF(V600E),27%
same,remaining binding at 10 µM,BTK; [3],0.5%
same,Kd,BTK; KINOMEscan,1100 nM
same,remaining binding at 10 µM,DCAMKL1,22%
same,remaining binding at 10 µM,DYRK1B,100%
same,remaining binding at 10 µM,EGFR,100%
same,remaining binding at 10 µM,ERBB2; [3],0%
same,Kd,ERBB2; KINOMEscan,1600 nM
same,remaining binding at 10 µM,ERBB4,97%
same,remaining binding at 10 µM,FGFR2,100%
same,remaining binding at 10 µM,IGF1R,97%
same,remaining binding at 10 µM,IKK-alpha,45%
same,remaining binding at 10 µM,[1],10%
same,remaining binding at 10 µM,KIT,100%
same,remaining binding at 10 µM,"KIT(V559D,T670I)",100%
same,remaining binding at 10 µM,MAP3K4,93%
same,remaining binding at 10 µM,MEK1,45%
same,remaining binding at 10 µM,MKNK1,1.4%
same,remaining binding at 10 µM,PIK3C2B,61%
same,remaining binding at 10 µM,PIM3,81%
same,remaining binding at 10 µM,PLK3,73%
same,remaining binding at 10 µM,PRKCE; [3],0%
same,Kd,PRKCE; KINOMEscan,1200 nM
same,remaining binding at 10 µM,RET,100%
same,remaining binding at 10 µM,[2],46%
same,remaining binding at 10 µM,SRC,100%
same,remaining binding at 10 µM,VEGFR2,23%
same,remaining binding at 10 µM,CDK11,88%
